{"source": "patent EP4623912A1", "about": "“A METHOD FOR DEFATTENING A STEATOTIC LIVER EX VIVO” (ETH Zurich, priority 2024, dated 2025)", "key": {"ATGL [1]": {"system": "ATGL", "experiment": "ATGL in HepG2 cells after 2-DG treatment", "format": "cell-based, human", "procedure": "HepG2 cell type was cultured in RPMI medium with 10% FBS and 1% Pen/Strep on collagen-coated plates. Lipofectamine RNAiMAX reagent mediated siRNA (100 nM) was delivered to cells at the suspended state for 48 h. Different from HEK cells, it is not necessary to induce LDs via OA treatment in that there exist LDs in the HepG2 cell type at normal culture medium. The inventors treated HepG2 cells with 10 µM PF04620110 (DGAT1 inhibitor, Sigma) & PF-06424439 (DGAT2 inhibitor, Sigma) for 48 hours or with 5 µg/mL BFA (B5936, Sigma) for 6 hours to deplete LDs and intact Golgi in the HepG2 cell type respectively before glucose deprivation. […]\nTotal RNA was extracted from adipose depots, liver or in vitro cell cultures via Trizol reagent (Invitrogen) according to the manufacturer's instructions. […] Quantitative PCR was performed using KAPA SYBR FAST Universal kit (Roche, KK4618) on ViiA7 (Applied Biosystems) and the relative transcript levels were normalized to […] expression via ΔΔCt method. […]\n(§1) Adipose depots, liver pieces, differentiated iBAs, HepG2, HEK293T and HEK293-AAV cell types were homogenized in RIPA buffer (50 mM Tris-HCl pH 7.4, 150 mM NaCl, 2 mM EDTA, 1.0% Triton X100, 0.5% sodium deoxycholate) with protease inhibitors (Complete, Roche) and phosphatase inhibitors (Halt phosphatase inhibitor cocktail, ThermoFisher). […] The concentration of WCE was determined by DC Protein Assay (Bio-Rad). […]"}, "C57BL/6N male mice": {"system": "C57BL/6N male mice", "experiment": "Glucose deprivation by 2-DG injection in mice", "format": "in vivo, mouse", "procedure": "All animal experiments were permitted by the Veterinary office of the Canton of Zurich. Both female and male mice were used in the experiments, and they were housed 2-5 littermates per cage in ventilated cages at standard housing conditions (22°C, 12 h reversed light/dark cycle, dark phase starting at 7 am) with normal chow diet (18% proteins, 4.5% fibers, 4.5% fat, 6.3% ashes, Provimi Kliba SA) and water. Health status of all the mouse lines were monitored regularly based on FELASA guidelines. 8-10 weeks old C57BL/6N male mice were fasted for 24 h or injected with 2-DG (2 g/kg BW) to induce glucose deprivation for different durations. Female ROSA26-LSL-spCas9 mice (The Jackson Lab strain) were intravenously injected with AAV8-U6-Pi4kb gRNAs-TBG-Cre, AAV8-U6-Sacm1l gRNAs-TBG-Cre, AAV8-U6-Cu/7 gRNAs-TBG-Cre and AAV8-U6-Fbxw8 gRNAs-TBG-Cre virus pools to express six gRNAs targeting individual gene and CAS9 in the liver at a dose of 3×10^11 genome copies/mouse. Two weeks later, livers were harvested for protein and RNA extraction after 6 hours fasting. To determine liver TG levels under NCD feeding condition, 4 weeks after AAV administration livers were harvested after 6 hours fasting. Also 4 weeks after AAV administration, the liver specific Cul7&Fbxw8 double knockout mice were injected with 2-DG (2 g/kg BW) to induce 1 hour glucose deprivation prior to liver harvesting for protein extraction.\nAdipose depots, liver pieces, differentiated iBAs, HepG2, HEK293T and HEK293-AAV cell types were homogenized in RIPA buffer (50 mM Tris-HCl pH 7.4, 150 mM NaCl, 2 mM EDTA, 1.0% Triton X100, 0.5% sodium deoxycholate) with protease inhibitors (Complete, Roche) and phosphatase inhibitors (Halt phosphatase inhibitor cocktail, ThermoFisher). The homogenates were centrifuged at 12,000×g for 10 min at 4°C to remove debris and collect whole cell extract (WCE). The concentration of WCE was determined by DC Protein Assay (Bio-Rad). After boiling the sample with Lämmeli buffer at 95°C for 5 min, equal amount of proteins was loaded and separated on 12% SDS-PAGE. The proteins were transferred to nitrocellulose membrane and blotted by ATGL (1:1000, Cell Signaling), CGI-58 (1:1000, Proteintech), phospho-HSL(Ser660) (1:1000, Cell Signaling), PLIN1 (1:1000, Cell Signaling), HSL (1:1000, Cell Signaling), γ-tubulin (1:10000, Sigma), FLAG (1:10000, Sigma; 1:1000, Cell Signaling), MGL (1:1000, Abcam), HA (1:1000, Cell signaling), FBXW8 (1:100, Santa Cruz; 1:1000, Sigma), CUL7 (1:100, Santa Cruz), HSP90 (1:1000, Cell Signaling), K48 polyubiquitin (1:1000, Cell signaling), PI4KB (1:1000, Sigma), SACM1L (1:1000, Sigma), AKT1 (1:1000, Cell Signaling), phospho-AKT1(Ser473) (1:1000, Cell Signaling), TGN46 (1:1000, Abcam), MAOA (1:1000, Abcam), PLIN2 (1:1000, Abcam), PMP70 (1:10000, Sigma), Calnexin (1:1000, Cell Signaling), ARF1 (1:1000, Invitrogen), GAPDH (1:1000, Cell Signaling), RAB7 (1:1000, Cell Signaling), alpha 1 Sodium Potassium ATPase (1:1000, Abcam), Cleaved Caspase-3 (1:1000, Cell Signaling), phospho-AMPKα (Thr172) (1:1000, Cell Signaling), AMPKα (1:1000, Cell Signaling) and GM130 (1:1000, Proteintech). The primay antibody signal was visualized by HRP-conjugated secondary antibodies (1:5000, Millipore) and the ImageQuant system (GE Healthcare Life Sciences).\nFor mouse insulin measurement, plasma was collected at different timepoints after 2-DG administration in wild type mice. 5 µl plasma sample was used to determine insulin levels via Ultra-sensitive mouse insulin ELISA kit (Crystal Chem, Cat# 90080) according to the manufacturer's protocol. The absorbance was measured via Synergy Gen5 Platereader at 450/630 nm. 2 µl plasma sample was used to determine glucose levels via Glucose Assay Kit (Sigma, MAK263) according to the manufacturer's protocol. The absorbance was read at 570 nm in Synergy Gen5 Platereader.\nPlasma collected from mice under different conditions was used to determine levels of lipolysis and liver injury. […]"}, "ATGL [2]": {"system": "ATGL", "experiment": "Block of proteasome mediated degradation, cellular ATGL protein", "format": "cell-based", "conditions": "proteasome blocked; Chloroquine (autophagy) had no such effect"}, "ATGL [3]": {"system": "ATGL", "experiment": "ATGL response to glucose deprivation in HepG2 cells after BFA treatment", "format": "cell-based, human", "conditions": "HepG2, 5 µg/mL BFA for 6 hours before glucose deprivation", "procedure": "HepG2 cell type was cultured in RPMI medium with 10% FBS and 1% Pen/Strep on collagen-coated plates. Lipofectamine RNAiMAX reagent mediated siRNA (100 nM) was delivered to cells at the suspended state for 48 h. Different from HEK cells, it is not necessary to induce LDs via OA treatment in that there exist LDs in the HepG2 cell type at normal culture medium. The inventors treated HepG2 cells with 10 µM PF04620110 (DGAT1 inhibitor, Sigma) & PF-06424439 (DGAT2 inhibitor, Sigma) for 48 hours or with 5 µg/mL BFA (B5936, Sigma) for 6 hours to deplete LDs and intact Golgi in the HepG2 cell type respectively before glucose deprivation. To deprive glucose in the HepG2 cell type, we either added 2-DG at indicated concentrations to the culture medium or refresh cells with RPMI medium containing different glucose concentrations prepared from the same RPMI medium (Gibco, 11879020).\nas §1"}, "[4]": {"conditions": "only 1 hour after 2-DG administration"}}, "note": "Where a SMILES comes first, the peptide text is derived from it. The star is where a group is joined. Cbz = O=C(OCc1ccccc1)*"}
{"smiles": "O=CC[C@@H](O)[C@H](O)[C@H](O)CO", "note": "[2-DG, 2-Deoxy-D-glucose]", "values": [{"measurement": "ATGL protein abundance", "setting": "ATGL [1]; HepG2, 50 mM 2-DG (Fig. 2b)", "result": "strongly induced"}, {"measurement": "ATGL transcript levels", "setting": "ATGL [1]; HepG2, 2-DG treatment", "result": "without changing"}, {"measurement": "lipolysis (plasma FFA levels)", "setting": "C57BL/6N male mice; 2-DG 2 g/kg BW, 1 h, 6 h, 12 h (Fig. 1c)", "result": "significantly induced"}, {"measurement": "ATGL levels in livers of wild-type mice", "setting": "C57BL/6N male mice; 2-DG for 1 hour, not in Cul7 and Fbxw8 double knockout (Fig. 6c)", "result": "upregulation"}, {"measurement": "ATGL protein levels in the liver and iBAT", "setting": "C57BL/6N male mice; 1 hour after 2-DG", "result": "increased"}, {"measurement": "ATGL protein levels in the liver, iBAT, iWAT and gWAT", "setting": "C57BL/6N male mice; longer glucose deprivation (6 h, 12 h after 2-DG)", "result": "further accumulation"}, {"measurement": "HSL phosphorylation in white adipose tissues", "setting": "C57BL/6N male mice; [4]", "result": "upregulation"}, {"measurement": "plasma insulin levels", "setting": "C57BL/6N male mice; [4]", "result": "reduction"}]}
{"smiles": "CC(C)C[C@@H](C=O)NC(=O)[C@H](CC(C)C)NC(=O)[C@H](CC(C)C)NC(=O)OCc1ccccc1", "note": "[MG132] (Cbz-Leu-Leu-Leu-aldehyde)", "values": [{"measurement": "cellular ATGL protein", "setting": "ATGL [2]", "result": "accumulation"}]}
{"smiles": "C[C@H]1CCC/C=C/[C@@H]2C[C@H](O)C[C@H]2[C@H](O)/C=C/C(=O)O1", "note": "[BFA, Brefeldin A]", "values": [{"measurement": "intracellular ATGL levels upon glucose deprivation", "setting": "ATGL [3]", "result": "failed to upregulate"}]}
